Measurements as given in patent US20260027068A1, “METHODS OF ADM[…]-KETAMINE” (Perception Neuroscience, Inc., priority 2022, published 2026).

Test: Respiratory rate (vital signs)
Conditions: 30 mg
Experimental: The Investigational Medicinal Product (IMP) R(−)-ketamine hydrochloride in sterile water for intravenous injection was investigated as an […] treatment of TRD. The International Union of Pure and Applied Chemistry (IUPAC) name is of the IMP is (2R)-2-(2-chlorophenyl)-2-(methylamino)cyclohexan-1-one. Subjects received the solution at either 30 mg or 60 mg dose, or a placebo. The IMP or placebo was administered on Day 1 as a single IV infusion via an electronic infusion pump over 40 minutes. The duration of study participation for each subject was up to 29 days including a screening period, a 3-day in-clinic visit, and 2 follow-up visits. 101 subjects were enrolled in approximately 20 study centers in the EU and the US.
Tympanic or temporal temperature, heart rate, blood pressure (SBP/DBP), respiratory rate, and SpO2 were assessed. Blood pressure and pulse measurements will be assessed with a completely automated device while the subject is supine or semi-supine. Manual techniques will be used only if an automated device is not available. Blood pressure and pulse measurements should be preceded by at least 5 minutes of rest for the subject in a quiet setting without distractions (e.g., television, cell phones). An abnormal blood pressure value at screening may be repeated once after 5 minutes of relaxation to determine the subject's eligibility. Blood pressure was recorded using the same arm and position (supine or semi-supine) throughout the study, where possible. Vital signs (to be taken before blood collection for laboratory tests) consisted of 1 pulse and 3 blood pressure measurements (3 consecutive blood pressure readings will be recorded at intervals of at least 1 minute). The average of the 3 blood pressure readings was recorded in the CRF. A pulse oximeter was used to measure peripheral capillary oxygen saturation (SpO2) continuously from pre-dose until 4-hours post-dose. A pulse oximeter was clipped onto the finger or foot of the subject, and light will be sent through the finger or foot and measured on the other side.
In these tables, baseline value is defined as the last non-missing value prior to study drug administration.

In the case of `CN[C@@]1(c2ccccc2Cl)CCCCC1=O.Cl` [R(−)-ketamine, (2R)-2-(2-chlorophenyl)-2-(methylamino)cyclohexan-1-one], the “Respiratory Rate, Max” value (Day 1, 15 minutes) was 22 breaths/minute, the “Respiratory Rate, Mean” value (Day 1, 15 minutes) was 16.0 breaths/minute and the “Respiratory Rate, Median” value (Day 1, 15 minutes) was 16.0 breaths/minute. For the same molecule, the “Respiratory Rate, Min” value (Day 1, 15 minutes) was 14 breaths/minute, the “Respiratory Rate, Max” value (Day 1, 40 minutes) was 18 breaths/minute and the “Respiratory Rate, Mean” value (Day 1, 40 minutes) was 15.7 breaths/minute. The “Respiratory Rate, Median” value (Day 1, 40 minutes) was 16.0 breaths/minute, the “Respiratory Rate, Min” value (Day 1, 40 minutes) was 13 breaths/minute and the “Respiratory Rate, Max” value (Day 1, 60 minutes) was 17 breaths/minute. The “Respiratory Rate, Mean” value (Day 1, 60 minutes) was 15.4 breaths/minute, the “Respiratory Rate, Median” value (Day 1, 60 minutes) was 15.5 breaths/minute and the “Respiratory Rate, Min” value (Day 1, 60 minutes) was 14 breaths/minute. The “Respiratory Rate, Max” value (Day 1, 2 hours) was 18 breaths/minute, the “Respiratory Rate, Mean” value (Day 1, 2 hours) was 15.9 breaths/minute and the “Respiratory Rate, Median” value (Day 1, 2 hours) was 16.0 breaths/minute. The “Respiratory Rate, Min” value (Day 1, 2 hours) was 13 breaths/minute, the “Respiratory Rate, Max” value (Day 1, 4 hours) was 21 breaths/minute and the “Respiratory Rate, Mean” value (Day 1, 4 hours) was 16.1 breaths/minute. The “Respiratory Rate, Median” value (Day 1, 4 hours) was 16.0 breaths/minute, the “Respiratory Rate, Min” value (Day 1, 4 hours) was 14 breaths/minute and the “Respiratory Rate, Max” value (Day 1, 6 hours) was 18 breaths/minute. The “Respiratory Rate, Mean” value (Day 1, 6 hours) was 15.9 breaths/minute, the “Respiratory Rate, Median” value (Day 1, 6 hours) was 16.0 breaths/minute and the “Respiratory Rate, Min” value (Day 1, 6 hours) was 14 breaths/minute. The “Respiratory Rate, Max” value (Day 2 - Discharge) was 21 breaths/minute, the “Respiratory Rate, Mean” value (Day 2 - Discharge) was 15.9 breaths/minute and the “Respiratory Rate, Median” value (Day 2 - Discharge) was 16.0 breaths/minute. The “Respiratory Rate, Min” value (Day 2 - Discharge) was 14 breaths/minute, the “Respiratory Rate, Max” value (Day 8) was 18 breaths/minute and the “Respiratory Rate, Mean” value (Day 8) was 15.9 breaths/minute. For the same molecule, the “Respiratory Rate, Median” value (Day 8) was 16.0 breaths/minute, the “Respiratory Rate, Min” value (Day 8) was 14 breaths/minute and the “Respiratory Rate, Max” value (Day 15) was 18 breaths/minute. The “Respiratory Rate, Mean” value (Day 15) was 15.7 breaths/minute, the “Respiratory Rate, Median” value (Day 15) was 16.0 breaths/minute and the “Respiratory Rate, Min” value (Day 15) was 14 breaths/minute. For the same molecule, the “Respiratory Rate, Change from Baseline, Max” value (shortened to “Respiratory Rate, Change … Max”) (to Day 1, 15 minutes) was 3 breaths/minute, the “Respiratory Rate, Change from Baseline, Mean” value (to Day 1, 15 minutes) was 0.1 breaths/minute and the “Respiratory Rate, Change from Baseline, Median” value (to Day 1, 15 minutes) was 0.0 breaths/minute. The “Respiratory Rate, Change from Baseline, Min” value (from here on “Respiratory Rate, Change … Min”) (to Day 1, 15 minutes) was −3 breaths/minute, the “Respiratory Rate, Change … Max” value (to Day 1, 40 minutes) was 2 breaths/minute and the “Respiratory Rate, Change from Baseline, Mean” value (to Day 1, 40 minutes) was −0.2 breaths/minute. For the same molecule, the “Respiratory Rate, Change from Baseline, Median” value (to Day 1, 40 minutes) was 0.0 breaths/minute, the “Respiratory Rate, Change … Min” value (to Day 1, 40 minutes) was −5 breaths/minute and the “Respiratory Rate, Change … Max” value (to Day 1, 60 minutes) was 3 breaths/minute. For the same molecule, the “Respiratory Rate, Change from Baseline, Mean” value (to Day 1, 60 minutes) was −0.4 breaths/minute, the “Respiratory Rate, Change from Baseline, Median” value (to Day 1, 60 minutes) was 0.0 breaths/minute and the “Respiratory Rate, Change … Min” value (to Day 1, 60 minutes) was −5 breaths/minute. The “Respiratory Rate, Change … Max” value (to Day 1, 2 hours) was 3 breaths/minute, the “Respiratory Rate, Change from Baseline, Mean” value (to Day 1, 2 hours) was −0.1 breaths/minute and the “Respiratory Rate, Change from Baseline, Median” value (to Day 1, 2 hours) was 0.0 breaths/minute. For the same molecule, the “Respiratory Rate, Change … Min” value (to Day 1, 2 hours) was −2 breaths/minute, the “Respiratory Rate, Change … Max” value (to Day 1, 4 hours) was 2 breaths/minute and the “Respiratory Rate, Change from Baseline, Mean” value (to Day 1, 4 hours) was 0.2 breaths/minute. The “Respiratory Rate, Change from Baseline, Median” value (to Day 1, 4 hours) was 0.0 breaths/minute, the “Respiratory Rate, Change … Min” value (to Day 1, 4 hours) was −2 breaths/minute and the “Respiratory Rate, Change … Max” value (to Day 1, 6 hours) was 2 breaths/minute. For the same molecule, the “Respiratory Rate, Change from Baseline, Mean” value (to Day 1, 6 hours) was −0.0 breaths/minute, the “Respiratory Rate, Change from Baseline, Median” value (to Day 1, 6 hours) was 0.0 breaths/minute and the “Respiratory Rate, Change … Min” value (to Day 1, 6 hours) was −3 breaths/minute. For the same molecule, the “Respiratory Rate, Change … Max” value (to Day 2 - Discharge) was 1 breaths/minute, the “Respiratory Rate, Change from Baseline, Mean” value (to Day 2 - Discharge) was −0.1 breaths/minute and the “Respiratory Rate, Change from Baseline, Median” value (to Day 2 - Discharge) was 0.0 breaths/minute. For the same molecule, the “Respiratory Rate, Change … Min” value (to Day 2 - Discharge) was −4 breaths/minute, the “Respiratory Rate, Change … Max” value (to Day 8) was 3 breaths/minute and the “Respiratory Rate, Change from Baseline, Mean” value (to Day 8) was −0.1 breaths/minute. For the same molecule, the “Respiratory Rate, Change from Baseline, Median” value (to Day 8) was 0.0 breaths/minute, the “Respiratory Rate, Change … Min” value (to Day 8) was −5 breaths/minute and the “Respiratory Rate, Change … Max” value (to Day 15) was 1 breaths/minute. For the same molecule, the “Respiratory Rate, Change from Baseline, Mean” value (to Day 15) was −0.3 breaths/minute, the “Respiratory Rate, Change from Baseline, Median” value (to Day 15) was 0.0 breaths/minute and the “Respiratory Rate, Change … Min” value (to Day 15) was −6 breaths/minute.
